According to PubChem BioAssay (NCI):
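Each compound was tested at five concentrations against cells in 96-well plates for 48 hours. At the GI50, growth is halved. TGI: concentration producing complete growth inhibition.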

Tests used:
Test in all cases: NCI-60 cell line screen, 48 h
DMS 273 small cell lung = tested on: DMS 273 small cell lung
HCT-15 colon = tested on: HCT-15 colon
HOP-18 NSCLC = tested on: HOP-18 NSCLC
KM20L2 colon = tested on: KM20L2 colon
LXFL 529 NSCLC = tested on: LXFL 529 NSCLC
OVCAR-4 ovarian = tested on: OVCAR-4 ovarian
RXF 393 renal = tested on: RXF 393 renal
SNB-75 CNS = tested on: SNB-75 CNS
UO-31 renal = tested on: UO-31 renal

Row | SMILES | TGI (DMS 273 small cell lung) [µM] | TGI (HCT-15 colon) [µM] | TGI (HOP-18 NSCLC) [µM] | TGI (KM20L2 colon) [µM] | TGI (LXFL 529 NSCLC) [µM] | TGI (OVCAR-4 ovarian) [µM] | TGI (RXF 393 renal) [µM] | TGI (SNB-75 CNS) [µM] | TGI (UO-31 renal) [µM] | GI50 (DMS 273 small cell lung) [µM] | GI50 (HOP-18 NSCLC) [µM] | GI50 (KM20L2 colon) [µM] | GI50 (LXFL 529 NSCLC) [µM]
1 | COc1ccc(/C=N/N=C(N)N)c(C(=O)O)c1OC | > 100 | > 100 | > 100 | > 100 | > 100 | > 100 | > 100 | > 100 | > 100 |  |  |  | 
2 | CC12CCC3=C(CSC4=C3CSc3ccccc34)C1=CCCC2=O (stereo not given) | > 100 | > 100 | > 100 | > 100 | > 100 | 55.6 | > 100 |  | > 100 |  |  |  | 
3 | O=C1CCCn2c3ccccc3c3ccnc1c32 | > 100 | > 100 | > 100 | > 100 |  | > 100 | 68.8 | > 100 | > 100 |  |  |  | 
4 | CSCC[C@@H](NC(=O)[C@H](CC(C)C)NC(=O)C(Cc1cnc[nH]1)NC(=O)CNC(=O)[C@@H](NC(=O)[C@H](C)NC(=O)[C@H](Cc1cn(C=O)c2ccccc12)NC(=O)[C@H](CCC(N)=O)NC(=O)[C@@H](N)CC(N)=O)C(C)C)C(N)=O (stereo not given in full) | > 100 | > 100 | > 100 | > 100 |  | > 100 | > 100 | > 100 | > 100 |  |  |  | 
5 | N.N.NCCCCN.O=C([O-])CCl.O=C([O-])CCl.O=C([O-])CCl.O=C([O-])CCl.[Pt+4].[Pt+4] | > 50 | > 50 | > 50 | > 50 | > 50 | > 50 | > 50 | > 50 | > 50 | 36 | > 50 | > 50 | > 50
6 | c1ccc(C[P+]2(c3ccccc3)CCCCC2)cc1 | > 100 | > 100 | > 100 | > 100 | > 100 | > 100 | > 100 | > 100 | > 100 |  |  |  | 
